# Experimental data as given in patent publication EP0423818B1, “Arylsulfatase” (Bristol-Myers Squibb Company, priority 1989, dated 1991).
# Tested on: Es-2 sulfatase
# Assay: EDTA treatment of the enzyme and recovery of activity by Ca2+
# Assay type: biochemical, Streptomyces sp. T109-3
# Conditions: 10 mM of EDTA followed by dialysis against water
# Protocol: (a) Optimum pH. The enzyme solution (0.6 u in 50 µl of 50 mM Tris-HCl, pH 7.5) was mixed with 100 µl each of the following buffers: 500 mM sodium acetate (pH 4.0-5.5), 500 mM Tris-maleate (pH 5.5-7.7), 500 mM Tris-HCl (pH 7.5-9.0), and 500 mM glycine-NaOH (pH 9.0-10.0). The substrate, p-nitrophenylsulfate, was similarly dissolved in each of the above buffers (1 mg/ml). A sample (150 µl) from the enzyme solution is mixed with the substrate (50 µl) in the same buffer, and the mixture was incubated for 30 minutes at 37°C. The enzyme activity in each buffer was determined spectrophotometrically by UV at 415 nm. The optimal pH of the enzyme was thus determined to be about 9.0 (Fig. 1A). (b) pH stability. The stock enzyme solution was dialyzed against water to remove salts. The enzyme solution was adjusted to 0.6 u/10 µl with Tris-HCl buffer (pH 7.5). This solution (10 µl) was mixed with 40 µl each of the buffer listed in (a) and incubated for 30 minutes at 30°C. The enzyme sample (50 µl) was mixed with 100 µl of 500 mM Tris-HCl (pH 9.0) and 50 µl of substrate in water (1mg/ml), and the mixture was incubated at 37°C for 30 minutes to determine the residual enzyme activity. […] (c) Optimum temperature. Enzyme (0.6 u) in 150 µl of 50 mM Tris-HCl (pH 9.0) were incubated with p-nitrophenylsulfate (1 mg/ml, 50 µl) in the same buffer (pH 9.0) for 30 minutes at various temperatures (200 µl each). […]
row,Compound,sulfatase activity after treatment of the enzyme with EDTA
1,O=C(O)CN(CCN(CC(=O)O)CC(=O)O)CC(=O)O [EDTA],the sulfatase activity disappeared

# Tested on: Es-2 sulfatase
# Assay: Effect of salts on sulfatase activity (protocol as for ions)
# Assay type: biochemical, Streptomyces sp. T109-3
# Conditions: 5 mM of a salt
# Protocol: (§1) (a) Optimum pH. The enzyme solution (0.6 u in 50 µl of 50 mM Tris-HCl, pH 7.5) was mixed with 100 µl each of the following buffers: 500 mM sodium acetate (pH 4.0-5.5), 500 mM Tris-maleate (pH 5.5-7.7), 500 mM Tris-HCl (pH 7.5-9.0), and 500 mM glycine-NaOH (pH 9.0-10.0). The substrate, p-nitrophenylsulfate, was similarly dissolved in each of the above buffers (1 mg/ml). A sample (150 µl) from the enzyme solution is mixed with the substrate (50 µl) in the same buffer, and the mixture was incubated for 30 minutes at 37°C. The enzyme activity in each buffer was determined spectrophotometrically by UV at 415 nm. The optimal pH of the enzyme was thus determined to be about 9.0 (Fig. 1A). (b) pH stability. The stock enzyme solution was dialyzed against water to remove salts. The enzyme solution was adjusted to 0.6 u/10 µl with Tris-HCl buffer (pH 7.5). This solution (10 µl) was mixed with 40 µl each of the buffer listed in (a) and incubated for 30 minutes at 30°C. The enzyme sample (50 µl) was mixed with 100 µl of 500 mM Tris-HCl (pH 9.0) and 50 µl of substrate in water (1mg/ml), and the mixture was incubated at 37°C for 30 minutes to determine the residual enzyme activity. […] (c) Optimum temperature. Enzyme (0.6 u) in 150 µl of 50 mM Tris-HCl (pH 9.0) were incubated with p-nitrophenylsulfate (1 mg/ml, 50 µl) in the same buffer (pH 9.0) for 30 minutes at various temperatures (200 µl each). […] (d) Temperature stability. Enzyme preparations (0.6 u) in 50 mM Tris-HCl (150 µl, pH 9.0) were incubated for 15 minutes at various temperatures and then cooled in an ice bath. p-Nitrophenylsulfate (1 mg/ml, 50 µl) was added to the enzyme solution, and the mixture was incubated for 30 minutes at 37°C. The enzyme was stable below 30°C at pH 9.0 (Fig. 2B). (e) Effect of ions. Enzyme (0.6 u), p-nitrophenyl sulfate 4 mM, and ion 1 mM were dissolved in 200 µl of Tris-HCl (50 mM). The solution was incubated for 30 minutes at 37°C. p-Nitrophenol released was spectrophotometrically assayed by UV at 415 nm. […]
# (g) Effect of salts. The protocol used in (e) was followed, except that 5 mM of a salt was used instead of 1 mM of a metal ion. […]
row,Compound,inhibition of sulfatase activity (in words)
1,K2HPO4,strongly inhibited

# Same assay, conditions: 5 mM of a salt; p-nitrophenyl sulfate 4 mM; 30 minutes at 37°C
row,Compound,% Inhibit. [%]
1,(NH4)2SO4,44
2,K2HPO4,100
3,K2SO4,36
4,NaCl,58

# Tested on: Es-2 sulfatase
# Assay: Effect of enzyme inhibitors on sulfatase activity (protocol as for ions)
# Assay type: biochemical, Streptomyces sp. T109-3
# Conditions: 1000 µM
# Protocol: (a) Optimum pH. The enzyme solution (0.6 u in 50 µl of 50 mM Tris-HCl, pH 7.5) was mixed with 100 µl each of the following buffers: 500 mM sodium acetate (pH 4.0-5.5), 500 mM Tris-maleate (pH 5.5-7.7), 500 mM Tris-HCl (pH 7.5-9.0), and 500 mM glycine-NaOH (pH 9.0-10.0). The substrate, p-nitrophenylsulfate, was similarly dissolved in each of the above buffers (1 mg/ml). A sample (150 µl) from the enzyme solution is mixed with the substrate (50 µl) in the same buffer, and the mixture was incubated for 30 minutes at 37°C. The enzyme activity in each buffer was determined spectrophotometrically by UV at 415 nm. […] (b) pH stability. The stock enzyme solution was dialyzed against water to remove salts. The enzyme solution was adjusted to 0.6 u/10 µl with Tris-HCl buffer (pH 7.5). This solution (10 µl) was mixed with 40 µl each of the buffer listed in (a) and incubated for 30 minutes at 30°C. The enzyme sample (50 µl) was mixed with 100 µl of 500 mM Tris-HCl (pH 9.0) and 50 µl of substrate in water (1mg/ml), and the mixture was incubated at 37°C for 30 minutes to determine the residual enzyme activity. […] (c) Optimum temperature. Enzyme (0.6 u) in 150 µl of 50 mM Tris-HCl (pH 9.0) were incubated with p-nitrophenylsulfate (1 mg/ml, 50 µl) in the same buffer (pH 9.0) for 30 minutes at various temperatures (200 µl each). […] (d) Temperature stability. Enzyme preparations (0.6 u) in 50 mM Tris-HCl (150 µl, pH 9.0) were incubated for 15 minutes at various temperatures and then cooled in an ice bath. p-Nitrophenylsulfate (1 mg/ml, 50 µl) was added to the enzyme solution, and the mixture was incubated for 30 minutes at 37°C. […] (e) Effect of ions. Enzyme (0.6 u), p-nitrophenyl sulfate 4 mM, and ion 1 mM were dissolved in 200 µl of Tris-HCl (50 mM). The solution was incubated for 30 minutes at 37°C. p-Nitrophenol released was spectrophotometrically assayed by UV at 415 nm.
# (f) Effect of enzyme inhibitors. The protocol used in (e) was followed with the exception that 1 mM of an enzyme inhibitor was used instead of a metal ion.
row,Compound,% Inhibit. [%]
1,O=C(O)CN(CCN(CC(=O)O)CC(=O)O)CC(=O)O [EDTA],69
2,O=C(O)CI [Iodoacetic acid],96

# Same assay, conditions: 1 mM of an enzyme inhibitor; p-nitrophenyl sulfate 4 mM; 30 minutes at 37°C
row,Compound,% Inhibit. [%]
1,O[C@H](CS)[C@H](O)CS (racemic) [Dithiothreitol],34
2,"c1cnc2c(c1)ccc1cccnc12 [1,10-Phenanthroline]",60
3,OCCS [2-Mercaptoethanol],22
4,O=C(O)CC(O)(CC(=O)O)C(=O)O [Citrate],87
5,N[C@@H](CS)C(=O)O [Cysteine],18
6,c1c[nH]cn1 [Imidazole],14
7,CCN1C(=O)C=CC1=O [N-Ethylmaleimide],35
8,O=S(=O)(F)Cc1ccccc1 [Phenylmethanesulfonyl fluoride],81
9,O=C(O)c1cc[c]([Hg][Cl])cc1 [p-Chloromercuribenzoic acid],78

# Tested on: sulfatase of the invention
# Assay: Substrate specificity: etoposide derivatives incubated with the enzyme, TLC analysis
# Assay type: biochemical, Streptomyces sp. T109-3
# Conditions: substrate 50 µl, 1 mg/ml; enzyme 0.6 u; 37°C for 30 minutes; silica gel TLC
# Protocol: (h) Substrate specificity. Four etoposide derivatives were tested as substrate for the sulfatase of the invention. The substrates are: etoposide 4'-sulfate (III), 2",3"-di-O-acetyl-etoposide-4'-sulfate (IV), etoposide 2"-sulfate (V), and etoposide 3"-sulfate (VI). The substrate (50 µl, 1 mg/ml, MeOH:H2O = 1:1, pH 9.0) and the enzyme (50 µl, 0.6 u, 50 mM Tris-HCl, pH 7.5) were mixed and incubated at 37°C for 30 minutes. The mixture was then analyzed on a silica gel TLC plate using a solvent system consisting of chloroform-methanol (10:1 v/v).
row,Compound,substrate for the enzyme
1,"COc1cc([C@@H]2c3cc4c(cc3[C@@H](O[C@@H]3O[C@@H]5CO[C@@H](C)O[C@H]5[C@H](O)[C@H]3O)[C@H]3COC(=O)[C@H]23)OCO4)cc(OC)c1OS(=O)(=O)O [(III), etoposide 4'-sulfate]",are not
2,"COc1cc([C@@H]2c3cc4c(cc3[C@@H](O[C@@H]3O[C@@H]5CO[C@@H](C)O[C@H]5[C@H](OC(C)=O)[C@H]3OC(C)=O)[C@H]3COC(=O)[C@H]23)OCO4)cc(OC)c1OS(=O)(=O)O [(IV), 2"",3""-di-O-acetyl-etoposide-4'-sulfate]",are not

# Tested on: Es-2 sulfatase
# Assay: Effect of metal ions on sulfatase activity (p-nitrophenyl sulfate hydrolysis, UV at 415 nm)
# Assay type: biochemical, Streptomyces sp. T109-3
# Conditions: ion 1 mM; enzyme 0.6 u; p-nitrophenyl sulfate 4 mM; Tris-HCl 50 mM; 30 minutes at 37°C
# Protocol: Sulfatase activity during purification is monitored by determining the conversion of p-nitrophenylsulfate into p-nitrophenol using spectrophotometric means. Specifically, the following assay method is used. 50 µl of a p-nitrophenylsulfate solution (1 mg/ml in 50 mM Tris-HCl, pH7.5), 50 µl of a sample, and 100 µl of 50 mM Tris-HCl, pH 7.5, are mixed and incubated for 30 minutes at 37°C. If the activity is weak, the incubation time is prolonged up to 18 hours. The liberated p-nitrophenol is determined spectrophotometrically at 415 nm. From standard curves of p-nitrophenol and protein concentrations, the unit or specific activity per mg of the enzyme is calculated. The protein concentration is determined by measuring the absorption at 280 nm throughout purification and, in case of homogeneous protein, by the Bradford method [Bradford, M., et al., Anal. Biochem., 1976, 72:248-254] using bovine serum albumin as the standard protein. A unit of sulfatase activity is defined as the amount of enzyme which can hydrolyze one nanomole of p-nitrophenyl sulfate to p-nitrophenol in one minute at 37°C at pH 7.5.
# as §1
Compound,Inhibit. (%),Rel. Activity (%)
[Cl][Hg][Cl] [HgCl2],100,0
AlCl3,33,67
BaCl2,17,83
CaCl2,–,213
CoCl2,66,34
CuCl2,44,56
FeCl2,88,12
FeCl3,49,51
MnCl2,66,34
NiCl2,41,59
ZnCl2,82,18

# Tested on: not given
# Assay: not given
# Conditions: background statement; compound disclosed in Japanese Kokai 88/192,793; cited from earlier work
row,Compound,cytotoxicity relative to etoposide
1,"COc1cc([C@@H]2c3cc4c(cc3[C@@H](O[C@@H]3O[C@@H]5CO[C@@H](C)O[C@H]5[C@H](O)[C@H]3O)[C@H]3COC(=O)[C@H]23)OCO4)cc(OC)c1OS(=O)(=O)O [(III), etoposide 4'-sulfate]",much less cytotoxic than etoposide itself
